According to patent publication US20210069143A1, “LOW-ALCOHOL ANTIMICROBIAL COMPOSITION AND USE THEREOF” (Zurex Pharma, Inc., priority 2017, published 2021):

Legend:
tested microorganisms = assay: Antimicrobial effect of components individually and together at various dilutions; format: cell-based; conditions: against most tested microorganisms
Description: The antimicrobial effect of various components of the composition of Example 1 were tested individually and together at various dilutions. The results are presented in FIG. 1A-1I, wherein shaded boxes indicate no significant response (<3 log10 reduction).

[1] = Gamma radiation (25-40 kGy) and 5-month storage stability of composition components in HDPE bottles; format: physicochemical; conditions: for % Change (Unexposed vs. Exposed) / % LC, Exposed / % LC, Unexposed / Concentration % Change, T = 0 vs. T = 5 Months / % IPA, Exposed / % IPA, Unexposed: HDPE bottle
Description: An antimicrobial composition comprising isopropyl alcohol, citric acid, methyl paraben, propyl paraben, and methylene blue in HDPE bottles was exposed to 25-40 kGy radiation, and the amount of each component detected in the solution before and after radiation was tested. The testing was repeated after 5 months of storage. The results are presented in Tables 1 and 2, below, wherein “exposed” indicates the samples exposed to gamma radiation and “unexposed” indicates the samples that were not exposed to gamma radiation.

[2] = T = 0, exposed to 25-40 kGy gamma radiation
[3] = T = 0, not exposed to gamma radiation
[4] = T = 5 months, exposed to 25-40 kGy gamma radiation
[5] = T = 5 months, not exposed to gamma radiation

CN(C)c1ccc2nc3ccc(=[N+](C)C)cc-3sc2c1 [Methylene Blue, methylene blue]
antimicrobial effect, alone (tested microorganisms; all tested concentrations): little to no effect | share of component in solution degraded by gamma radiation ([1]; 25-40 kGy, HDPE bottles, accompanied by a color change): approximately 50% | % Change (Unexposed vs. Exposed) ([1]; T = 0): −57.4% | % LC, Exposed [1, 2]: 44.9 % LC | % LC, Unexposed [1, 3]: 105.5 % LC | % Change (Unexposed vs. Exposed) ([1]; T = 5 months): −49.4% | % LC, Exposed [1, 4]: 47.3 % LC | % LC, Unexposed [1, 5]: 93.4 % LC

O=C(O)CC(O)(CC(=O)O)C(=O)O [citrate]
antimicrobial effect, alone (tested microorganisms; all tested concentrations): little to no effect

COC(=O)c1ccc(O)cc1 [Methylparaben, methyl-para-hydroxybenzoate]
Concentration % Change, T = 0 vs. T = 5 Months ([1]; Exposed to gamma radiation): 0.7% | % Change (Unexposed vs. Exposed) ([1]; T = 0): −0.4% | % LC, Exposed [1, 2]: 74.5 % LC | % LC, Unexposed [1, 3]: 74.8 % LC | % Change (Unexposed vs. Exposed) ([1]; T = 5 months): −0.3% | % LC, Exposed [1, 4]: 75.0 % LC | % LC, Unexposed [1, 5]: 75.2 % LC | Concentration % Change, T = 0 vs. T = 5 Months ([1]; Unexposed): 0.5%

O=C(O)CC(O)(CC(=O)O)C(=O)O [Citric Acid, citric acid]
change in amount of component upon gamma radiation ([1]; 25-40 kGy, HDPE bottles): negligible | Concentration % Change, T = 0 vs. T = 5 Months ([1]; Exposed to gamma radiation): −4.0% | % Change (Unexposed vs. Exposed) ([1]; T = 0): 1.1% | % LC, Exposed [1, 2]: 97.4 % LC | % LC, Unexposed [1, 3]: 96.3 % LC | % Change (Unexposed vs. Exposed) ([1]; T = 5 months): 0.4% | % LC, Exposed [1, 4]: 93.5 % LC | % LC, Unexposed [1, 5]: 93.1 % LC | Concentration % Change, T = 0 vs. T = 5 Months ([1]; Unexposed): −3.3%

CCCOC(=O)c1ccc(O)cc1 [Propylparaben, propyl-para-hydroxybenzoate]
Concentration % Change, T = 0 vs. T = 5 Months ([1]; Exposed to gamma radiation): 0.4% | % Change (Unexposed vs. Exposed) ([1]; T = 0): 0% | % LC, Exposed [1, 2]: 74.9 % LC | % LC, Unexposed [1, 3]: 74.9 % LC | % Change (Unexposed vs. Exposed) ([1]; T = 5 months): −0.1% | % LC, Exposed [1, 4]: 75.2 % LC | % LC, Unexposed [1, 5]: 75.3 % LC | Concentration % Change, T = 0 vs. T = 5 Months ([1]; Unexposed): 0.5%

CC(C)O [IPA, isopropyl alcohol]
antimicrobial effect, alone (tested microorganisms; 25% v/v strength solution): little to no effect | change in amount of component upon gamma radiation ([1]; 25-40 kGy, HDPE bottles): negligible | Concentration % Change, T = 0 vs. T = 5 Months ([1]; Exposed to gamma radiation): 0.7% | % Change (Unexposed vs. Exposed) ([1]; T = 0): 1.2% | % IPA, Exposed [1, 2]: 68.6% | % IPA, Unexposed [1, 3]: 68.1% | % Change (Unexposed vs. Exposed) ([1]; T = 5 months): −0.1% | % IPA, Exposed [1, 4]: 69.1% | % IPA, Unexposed [1, 5]: 69.2% | Concentration % Change, T = 0 vs. T = 5 Months ([1]; Unexposed): 1.6%
